The structures appear in SMILES notation.

One may read the IC50 as the point on the concentration scale where inhibition reaches its midpoint.

T1 sequence (Q92633 whole entry): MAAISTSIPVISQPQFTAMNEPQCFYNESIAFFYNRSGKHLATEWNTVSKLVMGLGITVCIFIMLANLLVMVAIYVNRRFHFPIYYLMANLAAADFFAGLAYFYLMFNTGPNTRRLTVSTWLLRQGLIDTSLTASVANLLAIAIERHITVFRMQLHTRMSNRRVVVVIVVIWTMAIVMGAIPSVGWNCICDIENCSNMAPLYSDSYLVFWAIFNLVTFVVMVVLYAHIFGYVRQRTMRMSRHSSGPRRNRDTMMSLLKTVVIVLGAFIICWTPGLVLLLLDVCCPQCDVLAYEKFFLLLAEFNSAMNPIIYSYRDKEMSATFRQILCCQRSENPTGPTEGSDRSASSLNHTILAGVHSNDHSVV

The first assay relates to IPF patients.
Assay: not given
Particulars: 26-week clinical trial, IPF patients (Palmer et al., Chest 2018); cited from earlier work.
With `Cc1noc(-c2ccc(-c3ccc(C4(C(=O)O)CC4)cc3)cc2)c1NC(=O)O[C@H](C)c1ccccc1` [BMS-986020], the “rate of FVC (forced vital capacity) decline” value is on record as “significantly reduce”.

The next assay has as its target T1, human LPA1 (Homo sapiens, UniProt Q92633).
T1 construct: expressed in transfected cells; host or cells: Chinese hamster ovary (CHO) cells
Briefly: LPA1 functional antagonist assay (calcium flux). In kind it is cell-based. Particulars: CHO cells overexpressing human LPA1; inhibition of calcium flux induced by 10 nM LPA; read-out: hLPA1 IC50. On the procedure: The effectiveness of compounds of the present invention as LPA1 inhibitors can be determined in an LPA1 functional antagonist assay as follows:
Chinese hamster ovary cells overexpressing human LPA1 were plated overnight (15,000 cells/well) in poly-D-lysine coated 384-well microplates (Greiner bio-one, Cat #781946) in DMEM/F12 medium (Gibco, Cat #11039). Following overnight culture, cells were loaded with calcium indicator dye (AAT Bioquest Inc, Cat #34601) for 30 minutes at 37° C. The cells were then equilibrated to room temperature for 30 minutes before the assay. Test compounds solubilized in DMSO were transferred to 384 well non-binding surface plates (Corning, Cat #3575) using the Labcyte Echo acoustic dispense and diluted with assay buffer [1X HBSS with calcium/magnesium (Gibco Cat #14025-092), 20 mM HEPES (Gibco Cat #15630-080) and 0.1% fatty acid free BSA (Sigma Cat # A9205)] to a final concentration of 0.5% DMSO. Diluted compounds were added to the cells by FDSS6000 (Hamamatsu) at final concentrations ranging from 0.08 nM to 5 μM. and were then incubated for 20 min at room temperature at which time LPA (Avanti Polar Lipids Cat #857130C) was added at final concentrations of 10 nM to stimulate the cells. The compound IC50 value was defined as the concentration of test compound which inhibited 50% of the calcium flux induced by LPA alone. IC50 values were determined by fitting data to a 4-parameter logistic equation (GraphPad Prism, San Diego Calif.).
Background: A change in cytosolic calcium serves as a functional read-out for many receptors and channels.
For the molecule `Cc1noc(-c2ccc(O[C@@H]3CCC[C@H](C(=O)O)C3)cc2)c1COc1nccc(-c2ccccc2)n1` (racemic) [Example 29, (±)-Cis-3-(4-(3-Methyl-4-(((4-phenylpyrimidin-2-yl)oxy)methyl)isoxazol-5-yl)phenoxy)cyclo-hexanecarboxylic Acid], the IC50 turned out to be 209 nM.

With `Cc1noc(-c2ccc(O[C@@H]3CCC[C@@H](C(=O)O)C3)cc2)c1COc1nccc(-c2ccccc2)n1` (racemic) [Example 30, (±)-Trans-3-(4-(3-methyl-4-(((4-phenylpyrimidin-2-yl)oxy)methyl)isoxazol-5-yl)phenoxy)cyclohexanecarboxylic Acid], the IC50 amounted to 47 nM.

In the case of `Cc1noc(-c2ccc(O[C@H]3CCC[C@H](C(=O)O)C3)cn2)c1CNc1nccc(-c2ccccc2)n1` [Example 1, (1S,3S)-3-((6-(3-methyl-4-(((4-phenylpyrimidin-2-yl)amino)methyl)isoxazol-5-yl)pyridin-3-yl)oxy) cyclohexane-1-carboxylic Acid], the IC50 was 14 nM.

In the case of `Cc1nc(-c2onc(C)c2CNc2ncnc(C(C)C)n2)ccc1O[C@H]1CCC[C@H](C(=O)O)C1` [Example 2, (1 S,3 S)-3-((6-(4-(((4-isopropyl-1,3,5-triazin-2-yl)amino)methyl)-3-methylisoxazol-5-yl)-2-methylpyridin-3-yl)oxy)cyclohexane-1-carboxylic Acid], the IC50 stood at 43 nM.

`Cc1noc(-c2ccc(O[C@H]3CCC[C@H](C(=O)O)C3)cn2)c1CNc1nccc(-c2ccccc2)n1` [Example 3]: the half-inhibitory concentration (IC50) came out at 18 nM.

For the molecule `Cc1noc(-c2ccc(O[C@H]3CCC[C@@H](C(=O)O)C3)cn2)c1CNc1nccc(-c2ccccc2)n1` [Example 4], the IC50 was 39 nM.

Regarding `Cc1noc(-c2ccc(O[C@H]3CCC[C@H](C(=O)O)C3)cn2)c1CNc1cc(-c2ccccc2)ccn1` [Example 5], the IC50 was determined as 21 nM.

With `Cc1noc(-c2ccc(O[C@H]3CCC[C@](F)(C(=O)O)C3)cn2)c1CNc1nccc(-c2ccccc2)n1` [Example 6], the IC50 worked out at 7.8 nM.

Take `Cc1noc(-c2ccc(O[C@H]3CCC[C@H](C(=O)O)C3)cn2)c1CNc1nccc(Oc2ccccc2)n1` [Example 7]: the IC50 came to 6 nM.

Consider `Cc1cc(-c2ccccc2)nc(NCc2c(C)noc2-c2ccc(O[C@H]3CCC[C@H](C(=O)O)C3)cn2)n1` [Example 8], for which the IC50 amounted to 16 nM.

Consider `Cc1cc(Oc2ccccc2)nc(NCc2c(C)noc2-c2ccc(O[C@H]3CCC[C@H](C(=O)O)C3)cn2)n1` [Example 9], for which the IC50 worked out at 20 nM.

`Cc1noc(-c2ccc(O[C@H]3CCC[C@H](C(=O)O)C3)cn2)c1CNc1nccc(C2CC2)n1` [Example 10]: the IC50 was 18 nM.

`Cc1cc(OC(C)C)nc(NCc2c(C)noc2-c2ccc(O[C@H]3CCC[C@H](C(=O)O)C3)cn2)n1` [Example 11]: the IC50 worked out at 17 nM.

As for `Cc1cc(N2CCCCC2)nc(NCc2c(C)noc2-c2ccc(O[C@H]3CCC[C@H](C(=O)O)C3)cn2)n1` [Example 12], the IC50 was found to be 1100 nM.

Regarding `Cc1noc(-c2ccc(O[C@H]3CCC[C@H](C(=O)O)C3)cn2)c1CNc1nccc(-c2ccccn2)n1` [Example 13], the 50% inhibitory concentration (IC50) stood at 32 nM.

Turning to `Cc1nc(-c2onc(C)c2CNc2nccc(-c3ccccn3)n2)ccc1O[C@H]1CCC[C@H](C(=O)O)C1` [Example 14], the IC50 was found to be 64 nM.

In the case of `Cc1cnc(NCc2c(C)noc2-c2ccc(O[C@H]3CCC[C@H](C(=O)O)C3)cn2)nc1-c1ccccc1` [Example 15], the IC50 turned out to be 4.9 nM.

In the case of `Cc1noc(-c2ccc(O[C@H]3CCC[C@@H](C(=O)O)C3)cn2)c1CNc1nccc(-c2ccccc2)n1` [Example 16], the IC50 worked out at 14 nM.

Turning to `CCOc1ccnc(NCc2c(C)noc2-c2ccc(O[C@H]3CCC[C@H](C(=O)O)C3)c(C)n2)n1` [Example 17, (1S,3S)-3-((6-(4-(((4-Ethoxypyrimidin-2-yl)amino)methyl)-3-methylisoxazol-5-yl)-2-methylpyridin-3-yl)oxy)cyclohexane-1-carboxylic Acid], the IC50 was found to be 26 nM.

Consider `Cc1nc(-c2onc(C)c2CNc2ncc(F)c(NC(C)C)n2)ccc1O[C@H]1CCC[C@H](C(=O)O)C1` [Example 18], for which the IC50 was 88 nM.

`Cc1nc(-c2onc(C)c2CNc2ncnc(C3CC3)n2)ccc1O[C@H]1CCC[C@H](C(=O)O)C1` [Example 19]: the IC50 worked out at 76 nM.

On to `Cc1nc(-c2onc(C)c2CNc2ncnc(C3CCC3)n2)ccc1O[C@H]1CCC[C@H](C(=O)O)C1` [Example 20], for which the IC50 was determined as 64 nM.

As to `Cc1nc(-c2onc(C)c2CNc2ncnc(C3CCCC3)n2)ccc1O[C@H]1CCC[C@H](C(=O)O)C1` [Example 21], the IC50 came out at 60 nM.

In the case of `Cc1noc(-c2ccc(O[C@@H]3CCC[C@@H](C(=O)O)C3)cc2)c1CNc1nccc(-c2ccccc2)n1` [Example 22], the IC50 is 47 nM.

For `CCOc1ccnc(NCc2c(C)noc2-c2ccc(O[C@H]3CCC[C@H](C(=O)O)C3)cn2)n1` [Example 23], the IC50 is 14 nM.

With `Cc1noc(-c2ccc(O[C@H]3CCC[C@H](C(=O)O)C3)cn2)c1CNc1ncc(F)c(NC(C)C)n1` [Example 24], the IC50 was determined as 32 nM.

`Cc1noc(-c2ccc(O[C@H]3CCC[C@H](C(=O)O)C3)cn2)c1CNc1ncnc(C2CC2)n1` [Example 25]: the IC50 came to 29 nM.

Turning to `Cc1noc(-c2ccc(O[C@H]3CCC[C@H](C(=O)O)C3)cn2)c1CNc1ncnc(C(C)C)n1` [Example 26], the IC50 turned out to be 38 nM.

Regarding `Cc1noc(-c2ccc(O[C@H]3CCC[C@H](C(=O)O)C3)cn2)c1CNc1ncnc(C2CCC2)n1` [Example 27], the IC50 stood at 33 nM.

Regarding `Cc1noc(-c2ccc(O[C@H]3CCC[C@H](C(=O)O)C3)cn2)c1CNc1ncnc(C2CCCC2)n1` [Example 28], the IC50 was determined as 24 nM.

A further assay relates to human foetal lung fibroblasts.
Assay: not given
Particulars: induced by BAL obtained from IPF patients (Tager et al. 2008); cited from earlier work.
For the molecule `Cc1noc(-c2ccc(CSCCC(=O)O)cc2)c1NC(=O)OC(C)c1ccccc1Cl` (stereo not shown) [Ki16425], the “chemotaxis of human foetal lung fibroblasts” value is reported as “blocked”.

The subject of a further assay is nerve-injured mice.
Assay: not given
Conditions: pretreatment, nerve-injured mice (Inoue et al. 2004); cited from earlier work.
Consider `C[C@@H](N)[C@H]1CC[C@H](C(=O)Nc2ccncc2)CC1` [Example Y-27632], for which the allodynia and hyperalgesia result is given as “completely abolished”.

The next assay concerns UUO mice.
Assay: not given
Particulars: UUO mice treated with antagonist, compared with LPA1 (-/-) mice; cited from earlier work.
Regarding `Cc1noc(-c2ccc(CSCCC(=O)O)cc2)c1NC(=O)OC(C)c1ccccc1Cl` (stereo not shown) [Ki16425], the “development of renal fibrosis” value is reported as “closely resembled the profile of LPA1 (−/−) mice”.

Another assay concerns pancreatic cancer cell lines.
Assay: not given
Conditions: highly peritoneal metastatic pancreatic cancer cell line (Yamada et al. 2004); cited from earlier work.
As to `Cc1noc(-c2ccc(CSCCC(=O)O)cc2)c1NC(=O)OC(C)c1ccccc1Cl` (stereo not shown) [Ki16425], the “LPA-induced and ascites-induced invasion activity” value is reported as “blocked”.

Staying with this assay, now noted: pancreatic cancer cell lines (Yamada et al. 2004); cited from earlier work.
As for `Cc1noc(-c2ccc(CSCCC(=O)O)cc2)c1NC(=O)OC(C)c1ccccc1Cl` (stereo not shown) [Ki16425], the “in vitro migration in response to LPA and peritoneal fluid (ascites)” value is “effectively blocked”.

Another assay has as its system mouse epithelial renal cell line, MCT.
Assay: not given
Conditions: MCT cells, co-treatment with LPA; cited from earlier work.
As for `Cc1noc(-c2ccc(CSCCC(=O)O)cc2)c1NC(=O)OC(C)c1ccccc1Cl` (stereo not shown) [Ki16425], the “induction of CTGF expression by LPA” value is given as “almost completely suppressed”.

These data come from patent US11319309B2, “Cyclohexyl acid isoxazole azines as LPA antagonists” (BRISTOL-MYERS SQUIBB COMPANY, priority 2017, dated 2022).
